Entries after “also recorded” stand apart in the source; their conditions may differ.
Experiments:
DU-145 cells [1] = test: Annexin V & Dead Cell apoptosis assay; format: cell-based, human; settings: DU-145, 10 µM, 24 h
Procedure: Induction of apoptosis was assayed using Annexin V & Dead Cell assay kit and Caspase 3/7 assay kit (EMD Millipore, Darmstadt, Germany). DU-145 cells were seeded in 6-well plates at a density of 6 × 10^5 cells/well and treated either with DMSO (control) or 10 µM of compounds 1.I and 5.I and incubated for 24 h. At the end of treatment, cells were harvested and processed with appropriate staining according to the manufacturer’s protocol. For the Caspase 3/7 assay, cells were stained with 5 μL of Muse™ Caspase 3/7 working solution and incubated at 37 °C for 30 min. After incubation, […] of Muse™ Caspase 7-AAD working solution was added and the samples were incubated for another 5 min at room temperature in the dark. For Annexin V assay, cells were stained with 100 μL pf Muse™ Annexin V & Dead Cell Reagent and incubated for 20 min at room temperature in the dark prior to analysis. Samples were further analyzed on a Muse™ Cell Analyzer (Merck Millipore, Darmstadt, Germany) using Muse™ 1.4 software. Data were obtained from at least two independent experiments.

[2] = tested on: non-malignant BEAS-2B lung cell line; test: MTT cell viability assay, BEAS-2B; format: cell-based; settings: Homo sapiens, normal lung, 48 h
Procedure: (§1) Cell lines were purchased from the American Type Culture Collection (ATCC). Cell lines MDA-MB-231, HTB-54, DU-145, and BEAS-2B were cultured in RPMI 1640 medium (Gibco, Thermo Fisher Scientific, Gaithersburg, MD, USA) supplemented with 10% fetal bovine serum (FBS; Gibco), 100 units/mL penicillin, and […] streptomycin (Gibco). HT-29 cell line was grown in McCoy’s 5A (Gibco), 10% FBS, 100 units/mL penicillin, and 100 μg/mL streptomycin. Cells were maintained at 37 °C and 5% CO2. The culture medium was changed every three days.
(§2) The cell viability of each compound was measured by MTT colorimetric assay. Each compound was dissolved in DMSO at a concentration of 0.01 M. Each compound was tested at two different concentrations (10 and 50 µM) in MDA-MB-231 (breast), HTB-54 (lung), DU-145 (prostate), and HT-29 (colon) human cancer cell lines. Serial dilutions were prepared with supplemented culture medium. […] IC50 and selectivity indexes (SI) were determined.
(§3) Briefly, 1 × 10^4 tumor cells per well were grown in 96-well plates for 24 h. Then, these cells were incubated for 48 h with either DMSO (control) or a different concentration of each of the tested compounds. The cell viability was determined by adding 20 μL of MTT two hours and a half before the termination point. After this time, the culture medium was removed. The resulting formazan crystals were dissolved in 50 μL of DMSO, and the absorbance was measured at 570 nm. Results are expressed as % cell growth. The data were obtained from at least three independent experiments performed in quadruplicate.

[3] = tested on: MDA-MB-231 (breast) cancer cell line; test: MTT cell viability assay, MDA-MB-231; format: cell-based, human; settings: Homo sapiens, MDA-MB-231, 48 h; for activity at 10 µM: read-out: Cell growth %, MDA-MB-231, 10 µM, 48 h, MTT; for activity at 50 µM: read-out: Cell growth %, MDA-MB-231, 50 µM, 48 h, MTT; for IC50: read-out: IC50 MDA-MB-231
How it was run: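 MDA-MB-231, HTB-54 and DU-145 grown in RPMI 1640, HT-29 in McCoy's 5A (10% FBS). Output is % cell growth; IC50 determined; ≥3 experiments in quadruplicate.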

[4] = tested on: MDA-MB-231, HT-29, HTB-54 and DU-145 cancer cell lines; test: MTT cell viability assay, statements over the panel of cancer cell lines; format: cell-based, human; settings: for IC50: Homo sapiens, span over HTB-54, MDA-MB-231 and DU-145; for cell growth: in at least three of the four cancer cell lines tested
Procedure: as §1, §2, §3

DU-145 cells [5] = test: Protective effects against H2O2-induced oxidative stress in DU-145 cells (MTT); format: cell-based, human; settings: for fold increase of cell survival: 0.0015 mg/mL, DU-145 treated with 300, 250 and 200 µM H2O2; for Increase-fold: increase-fold of cell survival
[6] = compound 0.0003 mg/mL, 200 µM H2O2, DU-145
[7] = compound 0.0003 mg/mL, 250 µM H2O2, DU-145
[8] = compound 0.0003 mg/mL, 300 µM H2O2, DU-145
[9] = compound 0.0015 mg/mL, 200 µM H2O2, DU-145
[10] = compound 0.0015 mg/mL, 250 µM H2O2, DU-145
[11] = compound 0.0015 mg/mL, 300 µM H2O2, DU-145

Question: With `CCCNC(=[Se])NC(=O)c1ccccc1` [Compound 5.I, N-(propylcarbamoselenoyl)benzamide] as the compound, how does the “increase of late/dead apoptotic cells with respect to the control” value (DU-145 cells [1]) read?
Answer: about 25%

Question: What about the “viable population reduced by” value (DU-145 cells [1]) of the same compound?
Answer: 37%

Question: And the IC50 [2]?
Answer: > 100 µM

Question: And the activity at 10 µM [3]?
Answer: 45 ± 12.5%

Question: And the activity at 50 µM [3]?
Answer: 21.3 ± 11.2%

Question: And the IC50 [3]?
Answer: 15.5 ± 6.3 µM

Question: And the IC50 [4]?
Answer: 7.8 to 15.5 µM

Question: What about the cell growth [4] of the same compound?
Answer: below 55%

Question: And the “fold increase of cell survival” value (DU-145 cells [5])?
Answer: doubled cell viability; also recorded: greater two-fold increase of cell survival

Question: What about the Increase-fold (DU-145 cells [5]; [6]) of the same compound?
Answer: 1.9 ± 0.3

Question: What about the Increase-fold (DU-145 cells [5]; [7]) of the same compound?
Answer: 1.9 ± 0.4

Question: And the Increase-fold (DU-145 cells [5]; [8])?
Answer: 1.7 ± 0.4

Question: And the Increase-fold (DU-145 cells [5]; [9])?
Answer: 3.1 ± 0.5

Question: What about the Increase-fold (DU-145 cells [5]; [10]) of the same compound?
Answer: 2.7 ± 0.3

Question: And the Increase-fold (DU-145 cells [5]; [11])?
Answer: 2.4 ± 0.4

Question: `CCCNC(=[Se])NC(=O)c1ccco1` [Compound 1.I, N-(propylcarbamoselenoyl)furan-2-carboxamide] was tested. Which “increase of late/dead apoptotic cells with respect to the control” value (DU-145 cells [1]) did it give?
Answer: about 25%

Question: What about the “viable population reduced by” value (DU-145 cells [1]) of the same compound?
Answer: 37%

Question: And the IC50 [2]?
Answer: > 100 µM

Question: What about the activity at 10 µM [3] of the same compound?
Answer: 46.7 ± 5.6%

Question: And the activity at 50 µM [3]?
Answer: 38 ± 7.8%

Question: And the IC50 [3]?
Answer: 8.8 ± 4.8 µM

Question: What about the IC50 [4] of the same compound?
Answer: 7.8 to 15.5 µM

Question: And the cell growth [4]?
Answer: below 55%

Question: And the “fold increase of cell survival” value (DU-145 cells [5])?
Answer: doubled cell viability; also recorded: greater two-fold increase of cell survival

Question: What about the Increase-fold (DU-145 cells [5]; [6]) of the same compound?
Answer: 2.0 ± 0.0

Question: And the Increase-fold (DU-145 cells [5]; [7])?
Answer: 2.0 ± 0.7

Question: And the Increase-fold (DU-145 cells [5]; [8])?
Answer: 1.8 ± 0.4

Question: What about the Increase-fold (DU-145 cells [5]; [9]) of the same compound?
Answer: 2.3 ± 0.7

Question: What about the Increase-fold (DU-145 cells [5]; [10]) of the same compound?
Answer: 2.7 ± 0.4

Question: And the Increase-fold (DU-145 cells [5]; [11])?
Answer: 2.3 ± 0.3
